Source: US11141413B2, “Method of treating renal cell carcinoma using N-(4-(6,7-dimethoxyquinolin-4-yloxy)phenyl)-N′-(4-fluorophenyl)cyclopropane-1,1-dicarboxamide, (2S)-hydroxybutanedioate” (Exelixis, Inc., priority 2016, dated 2021)
Values joined by “and” are separate entries in the source; they are usually repeats but may differ in a detail not shown here. Identical values can stand only once.

Tested on: advanced renal cell carcinoma (RCC)
Assay: METEOR (Study 1) randomized phase 3 trial, cabozantinib vs everolimus: PFS, OS, ORR
Assay type: in vivo, human
Conditions: for ORR (95% CI), IRC / ORR (95% CI), Investigator assessed / Progressive disease, IRC / Progressive disease, Investigator assessed / Stable disease, IRC / Stable disease, Investigator assessed / Confirmed ORR (95% CI), IRC / Confirmed ORR (95% CI), Investigator assessed / Confirmed responses (95% CI), IRC / Confirmed responses (95% CI), Investigator assessed: RECIST 1.1; for PFS event: all randomized
[1] = Patients With High Tumor Burden
[2] = Primary TWT analysis (first 375), cut-off May 2015, min follow-up 11 mo, 247 PFS events
[3] = Pts with Bone and Visceral Metastases
[4] = Supportive analysis, all events (all 658), cut-off May 2015, min follow-up 6 mo, 394 PFS events
[5] = Traditional analysis (all 658), cut-off November 2014, min follow-up 2 days, 247 PFS events
[6] = all 658 randomized, per IRC, cutoff May 22, 2015
[7] = earlier cutoff at 247 events in the ITT Pop (traditional design)
[8] = high tumor burden (≥median SoD)
[9] = patients with bone and visceral metastases
[10] = patients with visceral (lung or liver) metastases
[11] = pazopanib only prior VEGFR TKI subgroup
[12] = prior therapy subgroup Anti-PD-1/PD-L1
[13] = prior therapy subgroup Pazopanib Only
[14] = prior therapy subgroup Sunitinib Only
[15] = sunitinib only prior VEGFR TKI subgroup

COc1cc2nccc(Oc3ccc(NC(=O)C4(C(=O)Nc5ccc(F)cc5)CC4)cc3)c2cc1OC [cabozantinib]
Kaplan-Meier estimate of % of patients alive (6 Months landmark): 91% (87%, 93%)
Kaplan-Meier estimate of % of patients alive (12 Months landmark): 73%
Kaplan-Meier estimate of % of patients alive (12 Months landmark, listed as Cabozantinib): 73% (68%, 79%)
Kaplan-Meier estimate of % of patients alive (18 Months landmark): 58%
Kaplan-Meier estimate of % of patients alive (18 Months landmark, listed as Cabozantinib): 58% (53%, 64%)
Kaplan-Meier estimate of % of patients alive (24 Months landmark): 48% (39%, 55%)
OS HR, planned interim analysis, cabozantinib vs everolimus (49% information fraction, all 658 randomized, at time of primary PFS analysis): 0.67
ORR (95% CI), IRC (Asia Pacific): 28 (15-45) %
ORR (95% CI), Investigator assessed (Asia Pacific): 36 (21-53) %
Progressive disease, IRC (Asia Pacific): 10%
Progressive disease, Investigator assessed (Asia Pacific): 0%
Stable disease, IRC (Asia Pacific): 62%
Stable disease, Investigator assessed (Asia Pacific): 64%
ORR (95% CI), IRC (Europe): 15 (10-21) %
ORR (95% CI), Investigator assessed (Europe): 22 (16-29) %
Progressive disease, IRC (Europe): 10%
Progressive disease, Investigator assessed (Europe): 8%
Stable disease, IRC (Europe): 69%
Stable disease, Investigator assessed (Europe): 65%
Median OS (ITT, all 658 randomized, cutoff Dec. 31, 2015): 21.4 months
Objective response rate (confirmed, partial responses only) per IRC (ITT, all 658 randomized, cutoff May 22, 2015): 17%
ORR (95% CI), IRC (North America): 16 (10-24) %
ORR (95% CI), Investigator assessed (North America): 20 (13-29) %
Progressive disease, IRC (North America): 17%
Progressive disease, Investigator assessed (North America): 13%
Stable disease, IRC (North America): 62%
Stable disease, Investigator assessed (North America): 62%
Confirmed ORR (95% CI), IRC [1]: 18 (12-24) %
Confirmed ORR (95% CI), Investigator assessed [1]: 21 (15-28) %
Progressive disease, IRC [1]: 8%
Progressive disease, Investigator assessed [1]: 7%
Stable disease, IRC [1]: 68%
Stable disease, Investigator assessed [1]: 67%
Confirmed ORR (95% CI), IRC (Patients With Low Tumor Burden): 17 (12-24) %
Confirmed ORR (95% CI), Investigator assessed (Patients With Low Tumor Burden): 27 (20-34) %
Progressive disease, IRC (Patients With Low Tumor Burden): 16%
Progressive disease, Investigator assessed (Patients With Low Tumor Burden): 10%
Stable disease, IRC (Patients With Low Tumor Burden): 62%
Stable disease, Investigator assessed (Patients With Low Tumor Burden): 59%
Median PFS [2]: 7.4 mo
PFS HR, cabozantinib vs everolimus [2]: 0.58
Confirmed responses (95% CI), IRC (Pts with Bone Metastases): 17 (9-27) %
Confirmed responses (95% CI), Investigator assessed (Pts with Bone Metastases): 27 (18-39) %
Progressive disease, IRC (Pts with Bone Metastases): 13%
Progressive disease, Investigator assessed (Pts with Bone Metastases): 9%
Stable disease, IRC (Pts with Bone Metastases): 70%
Stable disease, Investigator assessed (Pts with Bone Metastases): 64%
Confirmed responses (95% CI), IRC [3]: 20 (11-32) %
Confirmed responses (95% CI), Investigator assessed [3]: 30 (19-43) %
Progressive disease, IRC [3]: 15%
Progressive disease, Investigator assessed [3]: 10%
Stable disease, IRC [3]: 65%
Stable disease, Investigator assessed [3]: 60%
Confirmed responses (95% CI), IRC (Pts without Bone Metastases): 17 (13-23) %
Confirmed responses (95% CI), Investigator assessed (Pts without Bone Metastases): 23 (18-28) %
Progressive disease, IRC (Pts without Bone Metastases): 12%
Progressive disease, Investigator assessed (Pts without Bone Metastases): 9%
Stable disease, IRC (Pts without Bone Metastases): 64%
Stable disease, Investigator assessed (Pts without Bone Metastases): 83%
Median PFS [4]: 7.4 mo
PFS HR, cabozantinib vs everolimus [4]: 0.51
Median PFS [5]: 6 mo
PFS HR, cabozantinib vs everolimus [5]: 0.48
Objective response rate per investigator (all 658 randomized, cutoff May 22, 2015): 24%
Median duration of PFS [6]: 7.4 months
PFS HR, cabozantinib vs everolimus [6]: 0.51 and 0.52
Median duration of PFS (all 658 randomized, per IRC, cutoff May 22, 2015, listed as Cabozantinib): 7.4 (6.6-9.1) months and 7.4 months
PFS HR, cabozantinib vs everolimus (all 658 randomized, per investigator): 0.54
Median duration of PFS (all 658 randomized, per investigator, cutoff May 22, 2015): 7.4 (7.3-7.8) months
PFS HR, cabozantinib vs everolimus (all 658 randomized, per investigator, listed as Cabozantinib): 0.54 (0.45-0.66)
PFS event (per IRC, cutoff May 22, 2015): 180 (55) ^ n (%)
PFS event (per investigator, cutoff May 22, 2015): 196 (59) ^ n (%)
Median PFS, alternative analysis [7]: 6 mo
PFS HR, alternative analysis [7]: 0.49 and 0.48
Median PFS (first 375 randomized, per independent radiology review committee (IRC)): 7.4 months
Median OS (high MET tumor expression): 22.0 months
OS HR, cabozantinib vs everolimus (high MET tumor expression): 0.55
Median OS (high tumor burden): 18.1 mo
OS HR, cabozantinib vs eve [8]: 0.60
PFS HR, cabozantinib vs eve [8]: 0.41
Patients with reduction in measurable tumor lesion size (in vivo): 75%
Median OS (low MET tumor expression): 20.8 months
OS HR, cabozantinib vs everolimus (low MET tumor expression): 0.72
Median OS (low tumor burden): 22.0 mo
OS HR, cabozantinib vs eve (low tumor burden (<median SoD)): 0.76
PFS HR, cabozantinib vs eve (low tumor burden (<median SoD)): 0.63
Median OS (patients enrolled in Canada): 20.8 mo
Median PFS (patients enrolled in Canada): 7.4 mo
ORR (patients enrolled in Canada): 17%
OS HR, cabo vs eve (patients enrolled in Canada): 0.33
PFS HR, cabo vs eve (patients enrolled in Canada): 0.40
PFS HR, cabozantinib vs everolimus (patients with bone + visceral metastases): 0.26
Median PFS [9]: 5.6 mo
ORR [9]: 20%
OS HR, cabozantinib vs everolimus [9]: 0.45
Median PFS (patients with bone metastases): 7.4 mo
ORR (patients with bone metastases): 17%
OS HR, cabozantinib vs everolimus (patients with bone metastases): 0.54
PFS HR, cabozantinib vs everolimus (patients with bone metastases at baseline): 0.33
OS HR, cabozantinib vs eve [10]: 0.66
PFS HR, cabozantinib vs eve [10]: 0.48
OS HR, cabozantinib vs everolimus (pazopanib as only prior VEGFR TKI): 0.66
Median OS [11]: 22.0 months
Median PFS [11]: 7.4 months
Best overall response: confirmed complete response (per IRC): 0 n
Best overall response: confirmed partial response (per IRC): 57 n
Best overall response: confirmed complete response (per investigator): 0 n
Confirmed ORR (95% CI), tumor response by IRC [12]: 22 (6-48) %
Confirmed ORR (95% CI), tumor response by investigator [12]: 22 (6-48) %
Progressive disease, tumor response by IRC [12]: 11%
Progressive disease, tumor response by investigator [12]: 11%
Stable disease, tumor response by IRC [12]: 50%
Stable disease, tumor response by investigator [12]: 56%
Confirmed ORR (95% CI), tumor response by IRC [13]: 19 (12-29) %
Confirmed ORR (95% CI), tumor response by investigator [13]: 31 (21-41) %
Progressive disease, tumor response by IRC [13]: 14%
Progressive disease, tumor response by investigator [13]: 3%
Stable disease, tumor response by IRC [13]: 65%
Stable disease, tumor response by investigator [13]: 64%
Confirmed ORR (95% CI), tumor response by IRC [14]: 16 (11-24) %
Confirmed ORR (95% CI), tumor response by investigator [14]: 23 (16-31) %
Progressive disease, tumor response by IRC [14]: 12%
Progressive disease, tumor response by investigator [14]: 11%
Stable disease, tumor response by IRC [14]: 66%
Stable disease, tumor response by investigator [14]: 60%
ORR (region Asia Pacific (AP)): 28%
OS HR, cabozantinib vs eve (region Asia Pacific (AP)): 0.49
PFS HR, cabozantinib vs eve (region Asia Pacific (AP)): 0.43
ORR (region Europe (EU)): 15%
OS HR, cabozantinib vs eve (region Europe (EU)): 0.67
PFS HR, cabozantinib vs eve (region Europe (EU)): 0.54
ORR (region North America (NA)): 16%
OS HR, cabozantinib vs eve (region North America (NA)): 0.79
PFS HR, cabozantinib vs eve (region North America (NA)): 0.50
Deaths (second interim analysis of OS, of randomized patients): 42%
OS HR, cabozantinib vs everolimus (sunitinib as only prior VEGFR TKI): 0.66
Median OS [15]: 21.4 months
Median PFS [15]: 9.1 months
